The values that follow come from EP0420914B1, “COSMETIC AND SKIN TREATMENT COMPOSITIONS” (PROCYTE CORPORATION, priority 1988, dated 1994).

Assay [1] has as its system dermis. The assay can be described thus: Ultrasound evaluation of dermal density after topical cream on the forearm. In kind it is in vivo, human. Particulars: 10 women; cream twice daily for three weeks, volar forearm; score 0 no change to 3 marked change; p = 0.029 versus placebo cream. The protocol: The effect of a representative composition, glycyl-(-3-methyl-L-histidyl-L-lysine:copper(II)(active agent), on the epidermis and dermis was evaluated by ultrasound. Ultrasound technique uses high-frequency sound, at 20 megahertz, to produce an echo signal of the skin. This signal is processed to produce a diagrammatic representation of the skin that is related to the structures of the skin by the strength of the reflected signal.
The topical cream containing glycyl-(3-methyl)-L-histidyl-L-lysine:copper(II) or a control cream was applied twice daily for three weeks to the volar surface of the forearms of 10 female subjects with an average age of 31.7 years, using both the right and left sides in a random fashion for each cream. Subjects were evaluated by ultrasound scans at days 1, 7, 14 and 21.
The dermal density after treatment as measured by ultrasound was evaluated on a scoring system whereby no change = 0, a slight change = 1, a moderate change = 2, and a marked change = 3. In 10 women treated with the cream-plus-active-agent, the average density score was 1.7, while the average score of the placebo-cream-only was 0.7. This difference was significant at a probability of p = 0.029.

The subject of assay [2] is human epidermis. As to the kind of experiment: Epidermal cell turnover rate by clearance of dansyl chloride. Particulars: seven female subjects; daily topical cream, upper inner arm; compared with the corresponding untreated site. In kind it is in vivo. The protocol: The rate of cell turnover is determined by the number of days for clearance of dansyl chloride from stained stratum. Seven female subjects were used in the study, with an average age of 50.4 (± 3.8) years. Each subject was treated with 3% dansyl chloride in petrolatum on four sites on the upper inner arms. One site on each arm served as an untreated control and the other site as the treated site. Sites were randomized by computer as to left or right and as to proximal or distal areas of the upper arm. Twenty-four hours after occlusion, the sites were uncovered and photographed under ultraviolet light for fluorescence of the dansyl chloride. This photograph was designated as day 1. Photographs were made over the next four weeks until all subjects had completed the study, as determined by the final disappearance of the dansyl dye. The sites were then treated daily with a topical cream containing a representative composition, glycyl-(3-methyl)-L-histidyl-L-lysine:copper(II) or a control cream. The number of days for the total disappearance of the dansyl dye from the cream-treated sites was compared with the corresponding untreated site.

The subject of assay [3] is dermis, epidermis and subcutis. The assay can be described thus: Histological thickness of dermis, epidermis and subcutis in mice after topical creams. In kind it is in vivo, Swiss-Webster female mice. To be noted: creams on days 0, 1, 3, 4 and 5, placebo had returned to naive control level. On the procedure: Skin from 31 Swiss-Webster female mice (average age - 18 months) was evaluated histologically for evidence of changes in skin architecture following several applications of placebo- and peptide-containing cream formulations. Measurements were made of dermal, epidermal and subcutis thickness using an eyepiece micrometer at 100X power.
The mice had hair removed by a close clipping, and were treated on days 0, 1, 3, 4 and 5 with either glycyl-L-histidyl-L-lysine:copper(II), or representative derivatives glycyl-(3-methyl)-L-histidyl-L-lysine: copper(II) and glycyl-L-histidyl-L-lysyl-L-valyl-L-phenylalanyl-L-valine: copper(II), or a placebo cream (n = 5/group). Biopsies were performed on individual animals from the groups on days 6, 10, 12 and 14. In addition, eleven naive mice were biopsied on day 0.

Assay [4] relates to pig skin. As to the kind of experiment: Collagen content and angiogenic activity of pig skin biopsies after topical cream. It is filed as in vivo. On the procedure:
In a typical experiment, a young pig was treated topically with a cream containing glycyl-(3-methyl)-L-histidyl-L-lysine:copper(II) or a placebo cream once a day for 12 days. Punch biopsies (6 mm dia.) were taken on day 0 and day 12. The biopsies were analyzed for total wet weight, alkaline phosphatase, total protein, and hydroxyproline content. Alkaline phosphatase is an enzyme marker for capillary endothelial cells and is an indicator of new angiogenesis. The hydroxyproline is a component of collagen, and increased hydroxyproline content indicates increased collagen content. The punch biopsies were prepared for biochemical analysis, basically by the method of Counts et al. (D. Counts, P. Knighten and G. Hegreberg, J. Invest. Derm. 69:521-26, 1977).
In a first experiment, an increase in alkaline phosphatase activity and hydroxyproline content was detected on day 12 in the biopsies taken from skin treated with glycyl-(3-methyl)-L-histidyl-L-lysine:copper(II) relative to the placebo-treated area.
The results obtained in a second experiment are graphically illustrated in Figure 4. In this experiment, biopsies were taken from the pig on days 0, 10 and 13 and analyzed for alkaline phosphatase activity.

The test system of assay [5] is subcutaneous fat layer. The assay can be described thus: Formation of the subcutaneous fat layer after a single injection in mice (histology). It is filed as in vivo. To be noted: for subcutaneous fat layer at the area of injection: histology of the injected area. The protocol: A single dose of 50 micrograms of glycyl-L-histidyl-L-lysine n-octyl ester:Cu(II) was infiltrated under the skin in eight mice.
In another series of experiments, mice were injected once with glycyl-L-histidyl-L-lysine octyl ester:copper(II) at a dose of 500 micrograms per mouse.
This increase in subcutaneous fat is shown by taking a biopsy sample at day 21 through the area and sectioning for histology slides. […] The injected area is on the right with the adjacent uninjected area on the left of the photograph.
A group of ten mice were injected once with glycyl-L-histidyl-L-lysine decyl ester:copper(II) at a dose of 500 micrograms per mouse. Microscopic examination provided evidence of increased fat cell layer in the area surrounding the injection site.
A group of ten mice were injected once with glycyl-L-histidyl-L-lysine palmityl ester:copper(II) at a dose of 500 micrograms per mouse. Histological sections through the area of injection were similar to those described in Example VI.

Assay [6] deals with skin. The assay can be described thus: Topical ointment on human skin, single-subject case reports. In kind it is in vivo. Particulars: person. The protocol:
A person had skin covered by a sprinkled pattern of fine reddish spots of microhemorrhages beneath an irritated skin surface.
A person had skin covered with a scaly eczema-like surface.
A person with hair loss and numerous pigmented spots ("aging spots") was treated for 14 days on the top of their head with an ointment (consisting of 94% Unibase and 6% dimethysulfoxide) containing 4 milligrams of GHL-Cu octyl per gram.
A person had irritated skin with numerous pimples.

Setting [7] is: topical cream once a day for 12 days, 6 mm punch biopsy, day 12.
Setting [8] is: injected once, 500 micrograms per mouse.

On to “glycyl-(3-methyl)-L-histidyl-L-lysine:copper(II)”, for which, in assay [1], the “average density score (dermal density by ultrasound)” value amounted to 1.7. Further, the “increase of average skin turnover rate” value in assay [2] was determined as 30.0%. Moreover, the “epidermal thickness by day 14” value in assay [3] is “maintained an increased epidermal thickness”. Moreover, the “alkaline phosphatase activity, second experiment (Figure 4)” value in assay [4] (biopsies on days 0, 10 and 13, relative to placebo cream-treated areas) is reported as “increased alkaline phosphatase”. Also, in assay [4] (setting [7]), the “Angiogenic Activity (as alkaline phosphatase)” value is reported as 0.013 ± 0.001 inc A405/min/mg and the “Collagen Content (as hydroxyproline)” value is 5.8 ± 0.2 µg/biopsy.
With “glycyl-L-histidyl-L-lysine decyl ester:copper(II)”, the “subcutaneous fat layer at the area of injection” value in assay [5] (setting [8]) is recorded as “marked increase in the subcutaneous fat layer”.
As to “glycyl-L-histidyl-L-lysine n-octyl ester:copper(II)”, the “number and size of the fat cells” value in assay [5] (injected once, 500 micrograms per mouse, biopsy at day 21) is “increase in both the number and size of the fat cells”. The “increase in the subcutaneous fat layer in the skin near the injection site (fold)” value in assay [5] (injected once, 500 micrograms per mouse, biopsy at day 21, versus adjacent uninjected area) is listed as “approximately threefold”. In assay [5] (setting [8]), the “subcutaneous fat layer at the area of injection” value is “significant increase in the thickness of the subcutaneous fat layer”. For the same substance, the “amounts of subcutaneous fat” value in assay [5] (single dose of 50 micrograms infiltrated under the skin, eight mice) is recorded as “Increased amounts of subcutaneous fat were observed”. Also, the “softness and thickness of the skin covering the head” value in assay [6] (treated 14 days on top of head) is “noticeably softer to the touch and possessed a greater thickness”. In addition, the “number of aging spots” value in assay [6] (treated 14 days on top of head, 4 milligrams per gram in 94% Unibase and 6% dimethysulfoxide, thirty days after start) is “marked reduction in the number of aging spots”. Moreover, the “size of the remaining aging spots” value in assay [6] (treated 14 days, thirty days after start) is on record as “reduction in the size of the remaining spots”.
Turning to “glycyl-L-histidyl-L-lysine palmityl ester:copper(II)”, the “subcutaneous fat layer at the area of injection” value in assay [5] (setting [8]) is listed as “increase in the subcutaneous fat layer”.
Take “glycyl-L-histidyl-L-lysine: copper(II) [GHL-Cu]”: in assay [6] (once daily for 9 days, 4 mg GHL-Cu per gram), the “reddish spots of microhemorrhages” value is recorded as “complete clearing of the reddish spots”.
As for “glycyl-L-histidyl-L-lysyl-L-valyl-L-phenylalanyl-L-valine: copper(II)”, in assay [3], the “epidermal thickness by day 14” value was “maintained an increased epidermal thickness”.
